Results: paper PMC9010562, “Designing a Novel Functional Peptide With Dual Antimicrobial and Anti-inflammatory Activities via in Silico Methods” (Frontiers in Immunology, 2022)
Ends that are not written are not given here.

Tests used:
[1] = system: bovine red blood cells; assay: Hemolytic activity; type: cell-based; conditions: bovine RBCs 4% (v/v) in PBS, peptide up to 50 μM, 37°C 1 h, relative to 0.1% Triton X-100 (100%), absorbance 450 nm
Procedure: The hemolytic activity of the peptide was tested using bovine red blood cells (RBCs) purchased from Innovative Research (Novi, MI, USA). RBCs were diluted in PBS to obtain a 4% (v/v) suspension and were aliquoted at 100 μL per microtube. The RBC suspensions were mixed with an equal volume of 2-fold peptides and incubated at 37°C for 1 h. PBS and 0.1% Triton X-100 served as the negative control (0% hemolysis) and positive control (100% hemolysis), respectively. The tubes were centrifuged at 3,000 × g for 10 min at 4°C, and the supernatants were transferred to a 96-well microplate. The absorbance (Ab) was measured at 450 nm using a microplate reader (Molecular Devices). The hemolytic activity of each peptide was calculated by (Abpeptide – AbPBS)/(AbTriton X-100 – AbPBS) × 100.

[2] = system: BEAS-2B cells; assay: WST-8 cell viability assay; type: cell-based, human; conditions: WST-8, 24 h treatment
Description: (§1) Every strain used in the study was purchased from the Korean Culture Center of Microorganisms (KCCM, Seoul, Korea) or the American Type Culture Collection (ATCC, Manassas, VA, USA). The following bacterial strains were used in this study: Escherichia coli KCCM 11234 (E. coli), Pseudomonas aeruginosa ATCC 9027 (P. aeruginosa), Bacillus cereus KCCM 21366 (B. cereus), Staphylococcus aureus KCCM 11335 (S. aureus), and methicillin-resistant S. aureus ATCC 33591 (MRSA). Bacterial strains were maintained in tryptic soy broth (TSB, Difco Laboratories, Detroit, MI, USA) and cultured under shaking incubation at 37°C. In addition, the following human cell lines were used in this study: THP-1 monocytes (ATCC TIB-202), primary adipose-derived mesenchymal stem cell (hADMSC; CEFO Co., Seoul, Korea), normal bronchial epithelial cells BEAS-2B (ATCC CRL-9609), and lung carcinoma cells H460 (ATCC HTB-177). THP-1 and H460 cells were cultured in RPMI 1640 medium (Welgene Inc., Gyeongsan, Gyeongsangbuk-do, Korea) supplemented with 10% fetal bovine serum (Gibco), 1% penicillin and streptomycin (Gibco), and sodium pyruvate (Welgene Inc.). hADMSC and BEAS-2B cells were cultured in CEFOgro™ Human MSC Growth Medium (CEFO Co.) and BEGM™ Bronchial Epithelial Cell Growth Medium BulletKit™ (Lonza, Basel, Switzerland), respectively. The cells were maintained under humidified air with 5% CO2 at 37°C.
(§2) THP-1, hADMSC, BEAS-2B, and H460 cells were seeded in 96-well plates at a density of 1×10^5 cells/mL to evaluate the cytotoxic effect of the peptides. Different concentrations of peptide were treated and incubated for 24 h. Quanti-Max WST-8 Cell Viability assay solution (Biomax, Seoul, Korea) was added to each well, and then the plate was incubated for 1 h. The absorbance was read at 450 nm using a microplate reader (Molecular Devices), and the relative cell viability was calculated.

[3] = system: H460 cells; assay: WST-8 cell viability assay; type: cell-based, human; conditions: WST-8, 24 h treatment
Description: as §1, §2

[4] = system: hADMSC cells; assay: WST-8 cell viability assay; type: cell-based, human; conditions: WST-8, 24 h treatment
Description: as §1, §2

[5] = system: THP-1 cells; assay: WST-8 cell viability assay; type: cell-based, human; conditions: WST-8, 24 h treatment
Description: as §1, §2

[6] = Serum stability test (SDS-PAGE); type: in vitro ADME; conditions: 25 μg peptide in 20 μL with 10% human serum (also 2%, 5%), 37°C, 12 h (also 1, 4 h); SDS-PAGE 12% gel, Coomassie staining
Procedure: Peptide stability in human serum (HS, Sigma-Aldrich) was tested by sodium dodecyl sulfate-polyacrylamide gel electrophoresis (SDS-PAGE) ([25]). 25 μg of peptides were incubated with 2%, 5%, and 10% of HS in a total volume of 20μL. The samples, peptide control, HS controls were incubated at 37°C for 1, 4, 12 h and were mixed with 5 × protein sample buffer. The samples were loaded in 12% SDS gel along with Prosi prestained protein marker (GenDEPOT, Katy, TX, USA). After separation, gels were stained with Coomassie Brilliant Blue R-250 staining solution (Bio-Rad, Hercules, CA, USA). Gels were destained and imaged by ChemiDoc™ Imaging Systems (Bio-Rad).

[7] = system: methicillin-resistant S. aureus ATCC 33591 (MRSA); type: cell-based, Staphylococcus aureus; conditions: two-fold broth microdilution in MHB, 2×10^5 CFU/mL, 37°C, 18 h (24 h in the source), OD 600 nm; triplicate
Description: as §1, with “THP-1 and H460 cells were cultured in RPMI 1640 medium (Welgene Inc., Gyeongsan, Gyeongsangbuk-do, Korea) supplemented with 10% fetal bovine serum (Gibco), 1% penicillin and streptomycin (Gibco), and sodium pyruvate (Welgene Inc.). hADMSC and BEAS-2B cells were cultured in CEFOgro™ Human MSC Growth Medium (CEFO Co.) and BEGM™ Bronchial Epithelial Cell Growth Medium BulletKit™ (Lonza, Basel, Switzerland), respectively. The cells were maintained under humidified air with 5% CO2 at 37°C.” left out
Two-fold broth microdilution assays were performed to measure the MIC values of the peptides. […] The plates were incubated at 37°C for 18 h, and the bacterial growth was measured at 600 nm using a microplate reader (Molecular Devices, Sunnyvale, CA, USA). […] Relative colony formation was measured by counting colonies formed on agar plates, and was compared with the control plate for the relative expression.

[8] = system: Pseudomonas aeruginosa ATCC 9027; type: cell-based; conditions: two-fold broth microdilution in MHB, 2×10^5 CFU/mL, 37°C, 18 h (24 h in the source), OD 600 nm; triplicate
Description: as §1
(§3) Two-fold broth microdilution assays were performed to measure the MIC values of the peptides. In brief, the strains were grown to an exponential phase in MHB at 37°C and then diluted to reach 2×10^5 CFU/mL in fresh media. Peptides were serially diluted in PBS and then added of 50 μL/well to a 96-well plate. An equal volume of bacterial suspensions was added to each well, resulting in final concentrations of peptides ranging from 1 to 32 μM. The wells only with the medium served as blank, while adding the medium to inoculant was used as control. The plates were incubated at 37°C for 18 h, and the bacterial growth was measured at 600 nm using a microplate reader (Molecular Devices, Sunnyvale, CA, USA). […] To perform colony forming assay, different concentrations of peptides were mixed with an equal volume of bacterial suspensions, resulting in 2×10^5 CFU/mL. The samples were spread onto tryptic soy agar (TSA, Difco Laboratories) plates after 3 h incubation and incubated overnight at 37°C. Relative colony formation was measured by counting colonies formed on agar plates, and was compared with the control plate for the relative expression.

[9] = system: Escherichia coli KCCM 11234; type: cell-based; conditions: two-fold broth microdilution in MHB, 2×10^5 CFU/mL, 37°C, 18 h (24 h in the source), OD 600 nm; triplicate
Description: as §1, §3

[10] = system: Staphylococcus aureus KCCM 11335; type: cell-based; conditions: two-fold broth microdilution in MHB, 2×10^5 CFU/mL, 37°C, 18 h (24 h in the source), OD 600 nm; triplicate
Description: as §1, §3

[11] = system: Bacillus cereus KCCM 21366; type: cell-based; conditions: two-fold broth microdilution in MHB, 2×10^5 CFU/mL, 37°C, 18 h (24 h in the source), OD 600 nm; triplicate
Description: as §1, §3

Sequence | Hemolysis [1] | Concentration from which a significant cytotoxic effect was seen, BEAS-2B (normal cell line) [2] [µM] | Concentration from which cell viability was significantly affected, H460 [3] [µM] | Concentration from which a significant cytotoxic effect was seen, hADMSC (primary cell line) [4] [µM] | Concentration from which a significant cytotoxic effect was seen, THP-1 [5] [µM] | Stability in human serum [6] | MIC MRSA [7] [µM] | MIC P. aeruginosa [8] [µM] | MIC E. coli [9] [µM] | MIC S. aureus [10] [µM] | MIC B. cereus [11] [µM] | Concentration up to which cell viability was not affected, BEAS-2B [2] [µM] | Concentration up to which cell viability was not affected, H460 [3] [µM] | Concentration up to which cell viability was not affected, hADMSC [4] [µM] | Concentration up to which cell viability was not affected, THP-1 [5] [µM]
FKGLAKLLKIGLKALAKVIQ [Ak-N’] | over 50% | 2 | 0.5 | 2 | 5 | exhibited stability | 2 | 2 | 2 | 0.2 | 4 | – | – | – | –
NKGLAKLLKIGLKALESVIQ [Ak-N’m] | below 5% | – | – | – | – | exhibited stability | 32 | 8 | 2 | 8 | 32 | 2 | 2 | 2 | 10
